In patent US20220324815A1, “2-PHENOXY-PYRIMIDINE DERIVATIVES AS HERBICIDAL COMPOUNDS” (SYNGENTA CROP PROTECTION AG, priority 2019, published 2022):

Experiments:
Assay type in all cases: in vivo
Conditions in all cases: 250 g/ha unless otherwise stated, evaluated after 13 days, five-point scale
[1] = test system: Ipomoea hederacea (IPOHE); test: Test 1 glasshouse herbicide test, post-emergence application (Table B1)
Procedure, shortened: (§1)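 Pots sown in standard soil; sprayed 1 day (pre-emergence) or 8 days (post-emergence) after sowing at 250 g/ha unless stated, in acetone/water (50:50) with 0.5% Tween 20. Glasshouse 24/16 °C, 14 h light, 65% humidity; damage scored at 13 days on a 1–5 scale (5=81–100%, 1=0–20%).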

[2] = test system: Echinochloa crus-galli (ECHCG); test: as above
Procedure, shortened: as §1

Lolium perenne (LOLPE) [3] = test: as above
Procedure, shortened: as §1

[4] = test system: Amaranthus retoflexus (AMARE); test: as above
Procedure, shortened: as §1

Solanum nigrum (SOLNI) [5] = test: as above
Procedure, shortened: as §1

Setaria faberi (SETFA) [6] = test: as above
Procedure, shortened: as §1

[7] = test system: Ipomoea hederacea (IPOHE); test: Test 1 glasshouse herbicide test, pre-emergence application (Table B2)
Procedure, shortened: as §1

[8] = test system: Echinochloa crus-galli (ECHCG); test: as above
Procedure, shortened: as §1

Lolium perenne (LOLPE) [9] = test: as above
Procedure, shortened: as §1

[10] = test system: Amaranthus retoflexus (AMARE); test: as above
Procedure, shortened: as §1

Solanum nigrum (SOLNI) [11] = test: as above
Procedure, shortened: as §1

Setaria faberi (SETFA) [12] = test: as above
Procedure, shortened: as §1

SMILES | % phytotoxicity IPOHE, post-emergence application [1] | % phytotoxicity ECHCG, post-emergence application [2] | % phytotoxicity LOLPE, post-emergence application (Lolium perenne (LOLPE) [3]) | % phytotoxicity AMARE, post-emergence application [4] | % phytotoxicity SOLNI, post-emergence application (Solanum nigrum (SOLNI) [5]) | % phytotoxicity SETFA, post-emergence application (Setaria faberi (SETFA) [6]) | % phytotoxicity IPOHE, pre-emergence application [7] | % phytotoxicity ECHCG, pre-emergence application [8] | % phytotoxicity LOLPE, pre-emergence application (Lolium perenne (LOLPE) [9]) | % phytotoxicity AMARE, pre-emergence application [10] | % phytotoxicity SOLNI, pre-emergence application (Solanum nigrum (SOLNI) [11]) | % phytotoxicity SETFA, pre-emergence application (Setaria faberi (SETFA) [12])
O=S(=O)(CCC(F)(F)F)c1c(F)cccc1Oc1ncc(Cl)cn1 [Compound A9] | 3 (3=41 to 60%) | 3 (3=41 to 60%) | 3 (3=41 to 60%) | 5 (5=81 to 100%) | 5 (5=81 to 100%) | 4 (4=61 to 80%) | 4 (4=61 to 80%) | 4 (4=61 to 80%) | 4 (4=61 to 80%) | 5 (5=81 to 100%) | 5 (5=81 to 100%) | 5 (5=81 to 100%)
Clc1ccc(CSc2ccccc2Oc2ncc(Cl)cn2)cc1 [Compound A27] | 2 (2=21 to 40%) | 2 (2=21 to 40%) | 1 (1=0 to 20%) | 5 (5=81 to 100%) | 3 (3=41 to 60%) | 2 (2=21 to 40%) | 1 (1=0 to 20%) | 4 (4=61 to 80%) | 1 (1=0 to 20%) | 5 (5=81 to 100%) | 2 (2=21 to 40%) | 4 (4=61 to 80%)
N#Cc1cccc(Oc2ncc(Cl)cn2)c1[S+]([O-])CCCC(F)(F)F (stereo not drawn) [Compound A29, 3-(5-chloropyrimidin-2-yl)oxy-2-(4,4,4-trifluorobutylsulfinyl)benzonitrile] | 5 (5=81 to 100%) | 5 (5=81 to 100%) | 5 (5=81 to 100%) | 5 (5=81 to 100%) | 5 (5=81 to 100%) | 5 (5=81 to 100%) | 5 (5=81 to 100%) | 5 (5=81 to 100%) | 5 (5=81 to 100%) | 5 (5=81 to 100%) | 5 (5=81 to 100%) | 5 (5=81 to 100%)
N#Cc1cccc(Oc2ncc(Cl)cn2)c1[S+]([O-])CCC(F)(F)F (stereo not drawn) [Compound A14] | 5 (5=81 to 100%) | 5 (5=81 to 100%) | 4 (4=61 to 80%) | 5 (5=81 to 100%) | 5 (5=81 to 100%) | 5 (5=81 to 100%) | 5 (5=81 to 100%) | 5 (5=81 to 100%) | 3 (3=41 to 60%) | 5 (5=81 to 100%) | 5 (5=81 to 100%) | 5 (5=81 to 100%)
Fc1cccc(Oc2ncc(Cl)cn2)c1SCCC(F)(F)F [Compound A7] | 2 (2=21 to 40%) | 4 (4=61 to 80%) | 2 (2=21 to 40%) | 5 (5=81 to 100%) | 5 (5=81 to 100%) | 5 (5=81 to 100%) | 2 (2=21 to 40%) | 5 (5=81 to 100%) | 4 (4=61 to 80%) | 5 (5=81 to 100%) | 4 (4=61 to 80%) | 5 (5=81 to 100%)
O=S(=O)(CCC(F)(F)F)c1c(Cl)cccc1Oc1ncc(Cl)cn1 [Compound A12] | 4 (4=61 to 80%) | 5 (5=81 to 100%) | 5 (5=81 to 100%) | 5 (5=81 to 100%) | 5 (5=81 to 100%) | 5 (5=81 to 100%) | 5 (5=81 to 100%) | 5 (5=81 to 100%) | 5 (5=81 to 100%) | 5 (5=81 to 100%) | 5 (5=81 to 100%) | 5 (5=81 to 100%)
Clc1cnc(Oc2ccccc2SCc2ccccc2)nc1 [Compound A16] | 1 (1=0 to 20%) | 1 (1=0 to 20%) | 1 (1=0 to 20%) | 4 (4=61 to 80%) | 3 (3=41 to 60%) | 2 (2=21 to 40%) | 1 (1=0 to 20%) | 2 (2=21 to 40%) | 1 (1=0 to 20%) | 4 (4=61 to 80%) | 1 (1=0 to 20%) | 2 (2=21 to 40%)
